Measured values reported in the supplement of paper PMC11061612.

Legend:
Assay in all cases: combination Emax (second highest fraction inhibited in the dose matrix, 72 h); higher = more inhibition; extreme values may be limits of the assay
[1] = system: ATN-1 (T-Lymphoblastic Leukemia)
Method in brief: (§1)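 Cell lines in DMEM/F12 or RPMI with 10% FBS were plated in 1536-well plates, held 24 hours at 37°C, 5% CO2, then given two-drug dose matrices for 72 hours (DMSO typically 0.2%). Viability was read by CellTiter-Glo 2.0 luminescence and scaled as inhibition from 0 (vehicle wells) to 1 (blank wells). Combination Emax is the second-highest inhibition in the matrix; Bliss excess is observed combination effect minus expected EA + EB − EA·EB, EA and EB being single-agent effects.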

[2] = system: COR-L105 (Lung Adenocarcinoma)
Method in brief: as §1

[3] = system: TK (B-Cell Non-Hodgkin's Lymphoma)
Method in brief: as §1

[4] = system: HT-1197 (Bladder Carcinoma)
Method in brief: as §1

SK-N-DZ (Neuroblastoma) = system: SK-N-DZ (Neuroblastoma)
Method in brief: as §1

[5] = system: RPMI-8402 (T-Lymphoblastic Leukemia)
Method in brief: as §1

[6] = system: CAL-85-1 (Breast Carcinoma)
Method in brief: as §1

[7] = system: SBC-3 (Small Cell Lung Carcinoma)
Method in brief: as §1

[8] = system: RS4-11 (B-Lymphoblastic Leukemia)
Method in brief: as §1

[9] = system: HT-3 (Cervical Carcinoma)
Method in brief: as §1

[10] = system: NCI-H2170 (Squamous Cell Lung Carcinoma)
Method in brief: as §1

[11] = system: SUP-HD1 (Hodgkin's Lymphoma)
Method in brief: as §1

MG-63 (Osteosarcoma) = system: MG-63 (Osteosarcoma)
Method in brief: as §1

[12] = system: MDA-MB-175-VII (Breast Carcinoma)
Method in brief: as §1

[13] = system: SNU-1 (Gastric Carcinoma)
Method in brief: as §1

[14] = system: NCI-H1944 (Lung Adenocarcinoma)
Method in brief: as §1

[15] = system: NCI-H1975 (Lung Adenocarcinoma)
Method in brief: as §1

[16] = system: SCC90 (Head and Neck Carcinoma)
Method in brief: as §1

[17] = system: BT-474 (Breast Carcinoma)
Method in brief: as §1

[18] = system: NCI-H835 (Other Solid Carcinomas)
Method in brief: as §1

Compound | combination Emax [1] | combination Emax [2] | combination Emax [3] | combination Emax [4] | combination Emax (SK-N-DZ (Neuroblastoma)) | combination Emax [5] | combination Emax [6] | combination Emax [7] | combination Emax [8] | combination Emax [9] | combination Emax [10] | combination Emax [11] | combination Emax (MG-63 (Osteosarcoma)) | combination Emax [12] | combination Emax [13] | combination Emax [14] | combination Emax [15] | combination Emax [16] | combination Emax [17] | combination Emax [18]
COc1nnc2ccc(N3CCC(c4ccc(OCCN5CCN(C)C(=O)[C@H]5C)cc4)CC3)nn12 [AZD5153] + CCN(CCO)CCCOc1ccc2c(Nc3cc(CC(=O)Nc4cccc(F)c4)[nH]n3)ncnc2c1 [AZD2811] (first compound max 1 µM, 7x7, partner max 1 µM) | 0.734 | 0.426 | 0.371 | 0.742 | 0.8 | 0.999 | 0.657 | 0.781 | 0.977 | 0.332 | 0.717 | 0.704 | 0.694 | 0.509 | 0.653 | 0.711 | 0.781 | 0.452 | 0.368 | 0.384
COc1nnc2ccc(N3CCC(c4ccc(OCCN5CCN(C)C(=O)[C@H]5C)cc4)CC3)nn12 [AZD5153] + C[C@@H]1COCCN1C2=NC(=NC(=C2)C3(CC3)[S@](=N)(=O)C)C4=C5C=CNC5=NC=C4 [AZD6738] (first compound max 1 µM, 7x7, partner max 10 µM) | 0.984 | 0.477 | 0.968 | 0.724 | 0.979 | 1 | 0.734 | 0.784 | 0.944 | 0.601 | 0.788 | 0.823 | 0.757 | 0.529 | 0.823 | 0.88 | 0.737 | 0.416 | 0.483 | 0.727
COc1nnc2ccc(N3CCC(c4ccc(OCCN5CCN(C)C(=O)[C@H]5C)cc4)CC3)nn12 [AZD5153] + Cc1c2c(nn1C)CSCc1cc(n(C)n1)CSc1cc(c3ccccc3c1)OCCCc1c(C(=O)O)n(C)c3c-2c(Cl)ccc13 [AZD5991] (first compound max 1 µM, 7x7, partner max 1 µM) | 0.999 | 0.568 | 0.677 | 0.966 | 0.751 | 1 | 0.779 | 0.753 | 0.937 | 0.911 | 0.636 | 0.946 | 0.697 | 0.553 | 0.976 | 0.594 | 0.724 | 0.9 | 0.912 | 0.599
COc1nnc2ccc(N3CCC(c4ccc(OCCN5CCN(C)C(=O)[C@H]5C)cc4)CC3)nn12 [AZD5153] + Cn1cnc2c(F)c(Nc3ccc(Br)cc3Cl)c(C(=O)NOCCO)cc21 [Selumetinib] (first compound max 1 µM, 7x7, partner max 10 µM) | 0.508 | 0.621 | 0.232 | 0.806 | 0.703 | 0.774 | 0.687 | 0.699 | 0.593 | 0.399 | 0.405 | 0.752 | 0.689 | 0.493 | 0.71 | 0.717 | 0.72 | 0.916 | 0.385 | 0.446
NC1(C(=O)N[C@@H](CCO)c2ccc(Cl)cc2)CCN(c2ncnc3[nH]ccc23)CC1 [Capivasertib] + CC(=O)c1c(C)c2cnc(Nc3ccc(N4CCNCC4)cn3)nc2n(C2CCCC2)c1=O [Palbociclib] (first compound max 10 µM, 7x7, partner max 10 µM) | 0.686 | 0.362 | 0.0563 | 0.551 | 0.618 | 0.947 | 0.203 | 0.67 | 0.605 | 0.2 | 0.527 | 0.569 | 0.712 | 0.556 | 0.621 | 0.798 | 0.638 | 0.965 | 0.332 | 0.426
NC1(C(=O)N[C@@H](CCO)c2ccc(Cl)cc2)CCN(c2ncnc3[nH]ccc23)CC1 [Capivasertib] + CC(C)n1c(=O)n(C)c2cnc3cc(F)c(-c4ccc(OCCCN5CCCCC5)nc4)cc3c21 [AZD1390] (first compound max 10 µM, 7x7, partner max 0.3 µM) | 0.778 | 0.362 | 0.162 | 0.391 | 0.218 | 0.623 | 0.266 | 0.374 | 0.32 | 0.11 | 0.54 | 0.473 | 0.813 | 0.635 | 0.229 | 0.429 | 0.604 | 0.825 | 0.299 | 0.403
